Data from ChEMBL document CHEMBL4732117, “Small Molecule Approaches for Targeting the Polycomb Repressive Complex 2 (PRC2) in Cancer” (J Med Chem, 2020).
Where a SMILES comes first, the peptide text is derived from it. [ ]: non-standard residue; d: D form. Lys(Me3) = C[N+](C)(C)CCCC[C@H](N)C(=O)O

How the values were obtained:
[1] = Drug concentration in nucleus of human G401 cells assessed per million cells at 10 uM incubated for 2 hrs by UPLC-MS analysis; format: ADME, subcellular; details: g-401, 2 h
[2] = tested on: KARPAS-422; assay: Antiproliferative activity against human Karpas422 cells after 14 days by celltiter-glo luminescent cell viability assay; format: functional; details: KARPAS-422, 336 h, time 14 day
[3] = target: T1, Polycomb protein EED (Homo sapiens, UniProt O75530); assay: Binding affinity to human N-terminal His6-tagged/thrombin cleavage site fused/ AVI-tagged EED (1 to 441 residues) expressed in Escherichia coli BL21(DE3) cells by surface plasmon resonance method
[4] = Drug concentration in cytoplasm of human G401 cells assessed per million cells at 10 uM incubated for 2 hrs by UPLC-MS analysis; format: ADME, subcellular; details: g-401, 2 h
[5] = target: T2, Histone-lysine N-methyltransferase EZH1 (Homo sapiens, UniProt Q92800); assay: Inhibition of EZH1 in PRC2 complex (unknown origin) using biotinylated peptide as substrate in presence of S-adenosylmethionine
T2 sequence (Q92800 whole entry): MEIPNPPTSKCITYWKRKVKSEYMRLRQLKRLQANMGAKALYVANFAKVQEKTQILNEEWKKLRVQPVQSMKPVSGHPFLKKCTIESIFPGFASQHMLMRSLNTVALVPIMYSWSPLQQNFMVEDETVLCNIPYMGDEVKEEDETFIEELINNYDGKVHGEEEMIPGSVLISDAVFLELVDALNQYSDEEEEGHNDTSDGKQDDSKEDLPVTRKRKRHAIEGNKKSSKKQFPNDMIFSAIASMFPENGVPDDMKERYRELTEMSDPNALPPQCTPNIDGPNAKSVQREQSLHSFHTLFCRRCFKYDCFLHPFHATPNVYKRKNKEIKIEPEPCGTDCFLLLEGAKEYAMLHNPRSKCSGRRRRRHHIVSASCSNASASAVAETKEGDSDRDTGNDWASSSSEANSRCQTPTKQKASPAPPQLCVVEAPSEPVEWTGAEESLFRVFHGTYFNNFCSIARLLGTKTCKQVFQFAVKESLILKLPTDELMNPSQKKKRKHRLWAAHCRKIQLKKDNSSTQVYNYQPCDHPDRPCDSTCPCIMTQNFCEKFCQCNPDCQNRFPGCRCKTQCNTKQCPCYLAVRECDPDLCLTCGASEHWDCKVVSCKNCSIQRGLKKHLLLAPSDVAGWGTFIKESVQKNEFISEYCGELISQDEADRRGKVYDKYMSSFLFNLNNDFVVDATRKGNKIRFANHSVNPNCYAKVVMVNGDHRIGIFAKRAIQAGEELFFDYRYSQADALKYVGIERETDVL

[6] = Plasma concentration in SCID mouse xenografted with human G-401 cells at 125 mg/kg, po BID administered for 21 days and measured at 3 hrs post dose on day 21 by LC-MS/MS analysis; format: ADME, organism-based; details: time 21 day
[7] = target: T3, Histone-lysine N-methyltransferase EZH2 (Homo sapiens, UniProt Q15910); assay: Inhibition of wild type EZH2 in human PRC2 complex using S-adenosylmethionine and biotinylated histone peptides as substrate
[8] = target: T1, Polycomb protein EED; assay: Displacement of 3-FAM from N-terminal 6His-tagged full length EED (unknown origin) expressed in Escherichia coli Rosetta2 BL21(DE3)pLysS incubated for 30 mins by fluorescence polarization assay
[9] = target: T1, Polycomb protein EED; assay: Binding affinity to EED (unknown origin) by TR-FRET based binding assay
[10] = target: T1, Polycomb protein EED; assay: Displacement of OG(488) labeled probe from GST-tagged EED (unknown origin) incubated for 1 hr by lanthaScreen TR-FRET method
[11] = target: von Hippel-Lindau disease tumor suppressor/Polycomb protein EED (Homo sapiens) (UniProt O75530+P40337); assay: Induction of VHL-mediated EED degradation in human HeLa cells at 5 uM incubated for 24 hrs by Western blot analysis relative to control; format: cell-based
[12] = Time at which plasma concentration stays above cellular IC50 for inhibition of EZH2 in Swiss albino mouse at 50 mg/kg, PO; format: organism-based; details: in vivo
[13] = Time at which plasma concentration stays above cellular IC50 for inhibition of EZH2 in Swiss albino mouse at 15 mg/kg, ip; format: organism-based; details: in vivo
[14] = Cmax in Swiss albino mouse at 150 mg/kg, ip measured after 0.08 to 24 hrs; format: ADME, organism-based; design: route intraperitoneal, time 0.08-24 hrs, dose 150 mg/kg; details: in vivo
[15] = Time at which plasma concentration stays above cellular IC50 for inhibition of EZH2 in Swiss albino mouse at 50 to 150 mg/kg, ip; format: organism-based; details: in vivo, dose 50-150 mg/kg
[16] = target: T3, Histone-lysine N-methyltransferase EZH2; assay: Inhibition of EZH2 in PRC2 complex (unknown origin) using biotinylated peptide as substrate in presence of S-adenosylmethionine
[17] = Plasma concentration in Swiss albino mouse at 50 mg/kg, ip measured up to 24 hrs by LC-MS/MS analysis; format: ADME, organism-based
[18] = tested on: CT26; assay: Antitumor activity against mouse CT26 cells implanted in NOD/SCID mouse assessed as tumor growth inhibition at 30 mg/kg, PO relative to control; format: functional; details: read-out: TGI
[19] = target: T3, Histone-lysine N-methyltransferase EZH2; assay: Inhibition of EZH2 in PRC2 complex (unknown origin) expressed in Sf9 cells using histone H3 (21 to 44)-lys (biotin) and SAM as substrate incubated for 90 mins by radiometric scintillation proximity assay
[20] = target: T1, Polycomb protein EED; assay: Binding affinity to EED in PRC2 complex (unknown origin) using H3K27me0 (21 to 44 residue) peptide as substrate by LC-MS analysis
[21] = Plasma concentration in mouse xenografted with human Karpas-422 cells at 40 mg/kg, po; format: ADME, organism-based; details: in vivo
[22] = target: T1, Polycomb protein EED; assay: Displacement of UNC5114-biotin tracer ligand from N-terminal 6His-tagged EED (1 to 441 residues) (unknown origin) expressed in Escherichia coli Rosetta2 BL21(DE3)pLysS cells measured after 1 hr by TR-FRET analysis

T3 sequence (Q15910 whole entry): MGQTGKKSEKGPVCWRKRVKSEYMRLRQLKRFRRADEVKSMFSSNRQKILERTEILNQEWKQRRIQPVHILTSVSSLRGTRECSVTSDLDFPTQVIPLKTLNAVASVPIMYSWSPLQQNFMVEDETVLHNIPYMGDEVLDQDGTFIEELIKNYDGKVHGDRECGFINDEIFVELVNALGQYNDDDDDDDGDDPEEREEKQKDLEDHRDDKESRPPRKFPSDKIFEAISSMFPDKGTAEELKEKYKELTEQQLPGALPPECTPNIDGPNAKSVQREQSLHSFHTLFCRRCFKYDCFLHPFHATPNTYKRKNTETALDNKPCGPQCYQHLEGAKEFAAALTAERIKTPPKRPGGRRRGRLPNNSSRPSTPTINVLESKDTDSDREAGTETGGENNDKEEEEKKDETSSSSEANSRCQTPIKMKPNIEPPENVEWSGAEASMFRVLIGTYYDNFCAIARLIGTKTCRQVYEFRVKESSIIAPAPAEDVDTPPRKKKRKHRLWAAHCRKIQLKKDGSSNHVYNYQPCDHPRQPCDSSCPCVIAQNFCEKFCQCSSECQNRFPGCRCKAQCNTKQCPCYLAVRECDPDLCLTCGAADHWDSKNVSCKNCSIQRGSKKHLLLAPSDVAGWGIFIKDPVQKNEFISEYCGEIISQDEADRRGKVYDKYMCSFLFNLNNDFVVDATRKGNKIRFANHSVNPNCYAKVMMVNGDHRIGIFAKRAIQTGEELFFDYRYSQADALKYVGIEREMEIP
T1 sequence (O75530 whole entry, the tested form may be a part): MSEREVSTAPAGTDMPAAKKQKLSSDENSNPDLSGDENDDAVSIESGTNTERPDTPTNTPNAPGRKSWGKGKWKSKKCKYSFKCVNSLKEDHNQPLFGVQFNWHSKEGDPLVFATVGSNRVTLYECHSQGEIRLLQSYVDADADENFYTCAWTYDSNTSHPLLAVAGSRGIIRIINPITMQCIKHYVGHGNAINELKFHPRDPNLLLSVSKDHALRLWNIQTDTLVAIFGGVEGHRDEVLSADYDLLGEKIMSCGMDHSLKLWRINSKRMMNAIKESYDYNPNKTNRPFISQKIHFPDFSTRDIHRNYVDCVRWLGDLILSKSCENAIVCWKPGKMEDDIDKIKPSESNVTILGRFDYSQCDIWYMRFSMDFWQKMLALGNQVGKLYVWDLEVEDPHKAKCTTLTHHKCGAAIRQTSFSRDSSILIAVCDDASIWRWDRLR
von Hippel-Lindau disease tumor suppressor/Polycomb protein EED (Homo sapiens), sequence (O75530 2-441 limits assumed): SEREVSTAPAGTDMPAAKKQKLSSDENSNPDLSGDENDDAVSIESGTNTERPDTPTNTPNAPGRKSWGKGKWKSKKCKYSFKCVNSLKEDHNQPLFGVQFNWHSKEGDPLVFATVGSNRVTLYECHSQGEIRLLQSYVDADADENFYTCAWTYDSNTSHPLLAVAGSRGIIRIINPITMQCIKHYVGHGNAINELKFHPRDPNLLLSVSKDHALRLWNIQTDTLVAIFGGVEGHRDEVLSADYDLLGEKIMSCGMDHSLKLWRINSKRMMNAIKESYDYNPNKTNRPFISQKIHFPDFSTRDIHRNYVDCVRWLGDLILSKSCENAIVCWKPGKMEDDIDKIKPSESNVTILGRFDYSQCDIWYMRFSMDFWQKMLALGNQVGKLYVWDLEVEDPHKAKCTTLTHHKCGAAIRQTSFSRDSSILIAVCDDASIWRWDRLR
von Hippel-Lindau disease tumor suppressor/Polycomb protein EED (Homo sapiens), sequence (P40337 whole entry partner): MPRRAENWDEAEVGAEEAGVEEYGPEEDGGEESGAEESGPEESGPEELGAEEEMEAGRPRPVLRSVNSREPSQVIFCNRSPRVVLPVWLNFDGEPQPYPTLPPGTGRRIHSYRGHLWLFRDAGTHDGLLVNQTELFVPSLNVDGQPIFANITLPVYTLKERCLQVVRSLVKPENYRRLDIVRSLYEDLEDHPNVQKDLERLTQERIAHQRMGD

SMILES: Cc1nc(CCC(=O)NCCOc2ccc(OCC(=O)N[C@H](C(=O)N3C[C@H](O)C[C@H]3C(=O)NCc3ccc(-c4scnc4C)cc3)C(C)(C)C)cc2)ccc1-c1cnc(NCc2c(F)ccc3c2CCO3)n2cnnc12
- Drug uptake [1]: 37.2 pmol
- GI50 [2]: 45 nM
- Kd [3]: < 1 nM
- Drug uptake [4]: 4.69 pmol

SMILES: Cc1nc(CCC(=O)NCCCCC(=O)N[C@H](C(=O)N2C[C@H](O)C[C@H]2C(=O)NCc2ccc(-c3scnc3C)cc2)C(C)(C)C)ccc1-c1cnc(NCc2c(F)ccc3c2CCO3)n2cnnc12
- Drug uptake [1]: 0.79 pmol
- GI50 [2]: 57 nM
- Kd [3]: < 1 nM
- Drug uptake [4]: 0.03 pmol

SMILES: Cc1cc(C)c(CNC(=O)c2cc(-c3ccc(CN4CCOCC4)cc3)cc3c2cnn3C2CCCC2)c(=O)[nH]1
- IC50 [5]: 45 nM
- concentration at 504 h [6]: 8 µM

SMILES: Cc1cc(C)c(CNC(=O)c2cc(-c3ccc(CN4CCOCC4)cc3)cc3c2cnn3C(C)C)c(=O)[nH]1
- Ki [7]: 80 nM

SMILES: COC(=O)[C@H](C)NC(=O)[C@H](Cc1ccccc1)NC(=O)[C@H](CCCC[N+](C)(C)C)NC(=O)[C@H](CCCNC(=N)N)NC(=O)[C@@H](N)CCC(N)=O (H-QR[Lys(Me3)]FA-OMe)
- IC50 [8]: 14.8 µM

SMILES: CN(C)[C@H]1CN(C2CCc3cccc(F)c32)C[C@@H]1c1cn(C)c2ccccc12 (stereo not given in full)
- Ki [9]: 11 nM

SMILES: CNC(=O)CCc1ccc(-c2cnc(NCc3c(F)ccc4c3CCO4)n3cnnc23)c(C)n1
- Drug uptake [1]: 0.19 pmol
- GI50 [2]: 14 nM
- Drug uptake [4]: 0.34 pmol

SMILES: CN(C)[C@H]1CN(Cc2ccccc2)C[C@@H]1c1ccc(N2CCN(S(C)(=O)=O)CC2)cc1
- Ki [10]: 1830 nM

SMILES: Cc1ncsc1-c1ccc(CNC(=O)[C@@H]2C[C@@H](O)CN2C(=O)[C@@H](NC(=O)CCCNC(=O)c2ccc(-c3cnc(NCc4ccco4)n4cnnc34)cc2)C(C)(C)C)cc1
- Activity [11]: 80%

SMILES: Cc1cc(C)c(CNC(=O)c2cc(-c3ccc4c(c3)OCCO4)nc3c2cnn3C(C)C)c(=O)[nH]1
- Ki [7]: 310 nM

SMILES: CCCc1cc(C)[nH]c(=O)c1CNC(=O)c1cc(-c2ccc(N3CCN(C(C)C)CC3)nc2)cc2c1cnn2C(C)C
- Time [12]: 20 h
- Time [13]: 12 h
- Cmax [14]: 12 µM
- Time [15]: 24 h
- IC50 [16]: 2 nM

SMILES: Cc1cc(C)c(CNC(=O)c2cc(-c3ccc(N4CCN(CCNC(=O)CC56CC7CC(CC(C7)C5)C6)CC4)nc3)cc3c2cnn3C(C)C)c(=O)[nH]1
- concentration at 24 h [17]: > 1000 nM

SMILES: Cc1ncccc1-c1cnc(NCc2c(F)ccc3c2CCO3)n2cnnc12
- inhibition in vivo at 30 mg/kg [18]: 59%

SMILES: CCCc1cc(C)[nH]c(=O)c1CNC(=O)c1cc(-c2ccc(N3CCN(C)CC3)nc2)nc2c1cnn2C(C)C
- IC50 [19]: 11 nM

SMILES: CS(=O)(=O)c1ccc(-c2cnc(NCc3ccco3)n3cnnc23)cc1
- IC50 [20]: 23.4 nM
- concentration [21]: > 30 µM
- IC50 [22]: 45 nM
